Key:
[1] = tested on: SKOV3-TR and HeyA8-MDR cells; experiment: TUNEL apoptosis assay, taxane-resistant cells; type: cell-based, human
Procedure: (§1) Terminal deoxynucleotidyl transferase-mediated nick end labeling-positive cells were detected using Dead End Fluorometric terminal deoxynucleotidyl transferase-mediated nick end labeling system (APO-DIRECT, BD Biosciences/PharMingen, San Diego, Calif.) according to the manufacturer's instructions. Briefly, ovarian cancer cells in culture were treated with varying concentrations of docetaxel and harvested after 12, 24, 48, or 96 hours. Cells were fixed with 4% paraformaldehyde solution for 25 minutes on ice. Intracellular DNA fragments were then labeled by exposing cells to fluorescein-12-dUTP, treated with propidium iodide and RNaseA solution, and analyzed by flow cytometry (EPICS XL, Beckman Coulter, Miami, Fla.). The percentages of apoptotic cells were averaged over three consecutive experiments.

caspase-3 = experiment: Caspase-3 activity in ovarian cancer cells (DEVD-AFC); type: cell-based, human; settings: for increase in caspase-3 activity: 24 hours
Procedure: Ovarian cancer cells (1×10^6) in culture (six-well plates) were treated with or without docetaxel at the cell line specific IC50 or IC90 concentration for 24 hours. After washing with PBS, cells were lysed in 50 μL of cell lysis buffer provided. Caspase-3, caspase-8, and caspase-9 activities were measured with the appropriate apoptosis detection kit (BD Biosciences/Clontech, Palo Alto, Calif.), using substrate DEVD-AFC for caspase-3, IETD-AFC for caspase-8, and LEHD-AMC for caspase-9.

HeyA8 cells [2] = experiment: Cytotoxicity assay (MTT), HeyA8; type: cell-based, human; settings: Homo sapiens, HEY A8; HeyA8, 96 hours
Procedure: (§2) The medium was exchanged after 48 hours with increasing concentrations of docetaxel (obtained from Aventis Pharma, Bridgewater, N.J.) dissolved in ethanol (final concentration range, 0.1-10,000 nmol/L prepared in medium) or cisplatin (purchased from LKT Laboratories, Inc., St. Paul, Minn.) dissolved in water. After a 96-hour incubation, 50 μL of 0.15% 3-(4,5-dimethylthiazol-2-yl)-2,5-diphenyltetrazolium bromide was added to each well and incubated for 2 hours. The supernatant was removed, and cells were dissolved in 100 μL DMSO. The absorbance at 570 nm was recorded using a FALCON microplate reader (Becton Dickinson Labware, Bedford, Mass.), and cell survival expressed as a percent increase or decrease above control conditions, after subtracting blank A570 readings. The IC50 concentration was determined by finding the A570 reading midpoint between maximal and minimal readings and finding the chemotherapy concentration that intersects the growth curve at that A570 reading.

FAK = FAK cleavage in response to docetaxel, Western blot; type: cell-based, human
Procedure: Cells were lysed in modified RIPA buffer (50 mM Tris, 150 mM NaCl, 1% triton, 0.5% deoxycholate plus 25 µg/ml leupeptin, 10 µg/ml aprotinin, 2 mM EDTA, and 1 mM sodium orthovanadate (Sigma Chemical Co, St. Louis, Mo.) as previously described (Sood et al., 2004; Sood et al., 2002). A sample was removed from culture dishes by cell scraping and centrifuged at 12,500 rpm for 30 min. The […] protein concentration of the supernatant was determined using a bicinchoninic acid protein assay reagent kit (Pierce, Rockford, Ill.), and whole cell lysates were analyzed by 7.5% SDS-PAGE. Samples were then transferred to nitrocellulose membrane by semi-dry transfer (BioRad Laboratories, Hercules, Calif.). Membranes were blocked with 5% nonfat milk, and incubated with 0.25 μg/mL anti-FAK antibody (Biosource, International Camarillo, Calif.) for 1 h at room temperature. Antibody was detected with 0.167 μg/mL HRP-conjugated anti-mouse secondary antibody (The Jackson Laboratory, Bar Harbor, Me.) and developed with an enhanced chemiluminescence detection kit (Pierce). Equal loading was confirmed by detection of β-actin (0.1 μg/ml, anti-β-actin antibody, Sigma Chemical). Densitometric analysis was performed using the Scion Imaging software (Scion Corporation, Frederick, Md.).
It has been reported that FAK may be cleaved by caspase-3 (Gervais et al., 1998; Sasaki et al., 2002; Carragher et al., 2001). Based on observations regarding modulation of caspase levels by docetaxel in ovarian cancer cells, FAK cleavage after treatment with docetaxel was examined and whether there are differences in extent of FAK cleavage between the taxane-sensitive and taxane-resistant cell lines. In SKOV3 cells, FAK was cleaved after 48 and 72 hours of exposure to docetaxel (FIG. 7A). The 71-kDa fragments increased after treatment with docetaxel, whereas the 125-kDa fragments decreased. […] To study the dependence of FAK cleavage on caspase-3, the effect of DEVDfmk (caspase-3 inhibitor) was examined.

SKOV3-TR cells = experiment: Cytotoxicity assay (MTT), SKOV3-TR; type: cell-based, human
Procedure: as §2

HeyA8 cells [3] = experiment: TUNEL apoptosis assay, HeyA8; type: cell-based, human
Procedure: as §1, with “Briefly, ovarian cancer cells in culture were treated with varying concentrations of docetaxel and harvested after 12, 24, 48, or 96 hours.” left out

HeyA8-MDR cells = experiment: Cytotoxicity assay (MTT), HeyA8-MDR; type: cell-based, human
Procedure: as §2

SKOV3 cells [4] = experiment: TUNEL apoptosis assay, SKOV3; type: cell-based, human
Procedure: as §1, with “Briefly, ovarian cancer cells in culture were treated with varying concentrations of docetaxel and harvested after 12, 24, 48, or 96 hours.” left out

SKOV3 cells [5] = experiment: Cytotoxicity assay (MTT), SKOV3; type: cell-based, human; settings: Homo sapiens, SK-OV-3; SKOV3, 96 hours
Procedure: as §2

HeyA8 tumor samples = experiment: Mean vessel density (CD31) in HeyA8 tumor samples; type: in vivo, nude mice; settings: daily agonist treatment
Procedure: Paraffin sections were stained for CD31 (1:800 dilution, Pharmingen, San Jose, Calif.), MMP-2 (1:500 dilution, Chemicon, Temecula, Calif.), MMP-9 (1:200 dilution, Calbiochem, San Diego, Calif.), VEGF (1:500 dilution, Santa Cruz Biotechnology, Santa Cruz, Calif.) and bFGF (1:1,000 dilution, Sigma, St. Louis, Mo.) at 4° C. Samples were stained with a biotinylated goat anti-rabbit antibody for 30 min (prediluted), followed by strepavidin horseradish peroxidase for 30 min (1:300 dilution), and visualized in 3,3′-diaminobenzidine (DAB) for 5-10 min.
To quantify MVD, 10 random 0.159 mm^2 fields at 100× magnification were examined for each tumor, and the microvessels within those fields were counted. A single microvessel was defined as a discrete cluster of cells stained CD31(+), and the presence of a lumen was required for scoring as a microvessel.

HeyA8 cells [6] = experiment: Daily β-agonist treatment of mice bearing HeyA8 ovarian cancer cells; type: in vivo, nude mice; settings: 10 mg/kg daily
Source text: Mice habituated to vivarium conditions for 1 week before the initiation of stress procedures. A restraint-stress procedure was used based on previous studies (Sheridan et al., 1991), substituting a novel Mouse Restraint System (FIG. 15A) for conical centrifuge tubes. In this system, up to 10 mice are placed in individual slots, and each slot can be adjusted to restrain the animal for a desired length of time. In the present study, restraint stress began between 8 a.m. and 10 a.m., and lasted for 2-6 hours for up to 21 days. The ovarian cancer cell lines were harvested from subconfluent cultures by a brief exposure to 0.25% trypsin and 0.02% EDTA, resuspended in Hank's balanced salt solution (HBSS), and tested for >95% viability by trypan blue dye exclusion. The HeyA8 cells were injected i.p. into mice at a concentration of 2.5×10^5 cells while the other cell lines were injected at 1.0×10^6 cells per 0.2 ml HBSS, ten days after starting stress in all groups. Animals were necropsied 21 days after tumor injection, and tumors in the peritoneal cavity were excised, weighed, and documented for location. Immunohistochemistry and H&E staining procedures were carried out on formalin-fixed paraffin-embedded tumors.
Starting 4 days after tumor cell injection, mice bearing HeyA8 ovarian cancer cells (n=10 per group) were treated daily with either 1) PBS; 2) isoproterenol (non-specific β-agonist) 10 mg/kg; 3) terbutaline (β2-agonist) 5 mg/kg; 4) xamoterol (β1-agonist) 1 mg/kg; or 5) isoproterenol plus 2 mg/kg of the non-specific β-antagonist propranolol.

VEGF mRNA = VEGF mRNA expression, real-time RT-PCR; type: cell-based, human
Procedure: Total RNA was extracted (Trizol reagent; Invitrogen Co, Carlsbad, Calif.) and reverse transcribed using an oligo(dT) primer and M-MLV reverse transcriptase (Life Technologies, Inc., Rockville, Md.) in a final reaction volume of 20 μl (60 min at 42° C.). PCR amplifications are performed using the ABI Prism 7700 Sequence Detection System with TaqMan One-Step RT-PCR Master Mix Reagent kit (PE Applied Biosystems, Foster City, Calif.). Quantitative values are obtained from the Ct value, at which the increase in fluorescent signal associated with exponential growth of PCR products starts to be detected by the laser detector of the Sequence Detection System, using the analysis software according to the manufacturer's instructions (each sample is normalized on the basis of its I8S content). The VEGF primers were obtained from Applied Biosystems (Item number HS00173626-ml). βAR expression was examined with semi-quantitative RT-PCR using the following primers: βAR (forward, 5′-[…]-3′ (SEQ ID NO:13), reverse, 5′-[…]-3′) (SEQ ID NO:14); β2AR (forward, 5′-[…]-3′ (SEQ ID NO:15), reverse, 5′-[…]-3′) (SEQ ID NO:16).

A2780 and RMG-II cells = experiment: Intracellular cAMP in βAR negative cell lines; type: cell-based, human

CC(=O)O[C@@]12CO[C@@H]1C[C@H](O)[C@@]1(C)C(=O)[C@H](O)C3=C(C)[C@@H](OC(=O)[C@H](O)[C@@H](NC(=O)OC(C)(C)C)c4ccccc4)C[C@@](O)([C@@H](OC(=O)c4ccccc4)[C@H]21)C3(C)C [docetaxel]
apoptosis ([1]; FAK siRNA with or without docetaxel): neither agent alone induced much apoptosis | level of apoptosis ([1]; docetaxel with or without DEVD-fmk): remained low | increase in caspase-3 activity (caspase-3; HeyA8, IC50 level of docetaxel): 1.8 fold | increase in caspase-3 activity (caspase-3; HeyA8, IC90 level of docetaxel): 2.5 fold | increase in caspase-3 activity (caspase-3; SKOV3, IC50 level of docetaxel): 2.8 fold | increase in caspase-3 activity (caspase-3; SKOV3, IC90 level of docetaxel): 5.4 fold | induction of caspase activity (caspase-3; resistant SKOV3-TR and HeyA8-MDR, IC50 and IC90 levels for sensitive lines, caspase-3, -8, -9): not able to induce caspase activity | IC50 (HeyA8 cells [2]): 1 nM | FAK cleavage (FAK; SKOV3, 48 and 72 hours): cleaved | FAK cleavage (FAK; SKOV3-TR and HeyA8-MDR): did not show any increase in FAK cleavage products | IC50 (SKOV3-TR cells; Homo sapiens, SKOV3TR, SKOV3-TR, 96 hours): 225 nM | fold more resistant to docetaxel (SKOV3-TR cells; SKOV3-TR versus SKOV3): 36 fold | apoptosis (HeyA8 cells [3]; HeyA8, IC20 level of docetaxel, FAK siRNA 48 hours before): ~42% | proportion of apoptotic cells (HeyA8 cells [3]; HeyA8, docetaxel 72 hours without or with DEVD-fmk): 56% | proportion of apoptotic cells (HeyA8 cells [3]; HeyA8, docetaxel 96 hours): 66% | fold more resistant to docetaxel (HeyA8-MDR cells; HeyA8-MDR versus HeyA8): 300 fold | IC50 (HeyA8-MDR cells; Homo sapiens, HeyA8-MDR, 96 hours): 450 nM | apoptosis (SKOV3 cells [4]; SKOV3, IC20 level of docetaxel, FAK siRNA 48 hours before): about 41% | proportion of apoptotic cells (SKOV3 cells [4]; SKOV3, docetaxel 72 hours without or with DEVD-fmk): 72% | proportion of apoptotic cells (SKOV3 cells [4]; SKOV3, docetaxel 96 hours): 84% | IC50 (SKOV3 cells [5]): 6.2 nM

CC(C)NCC(O)c1ccc(O)c(O)c1 (centres unmarked) [isoproterenol]
MVD counts (HeyA8 tumor samples): significantly higher MVD counts compared to controls | increase in average tumor weight compared to control (HeyA8 cells [6]): 266% | increase in mean number of tumor nodules compared to control (HeyA8 cells [6]): 341% | effect on VEGF mRNA (VEGF mRNA; SKOV3ip1, forskolin 1 μM, db-cAMP 1 mM): mimicked | intracellular cAMP levels after stimulation (A2780 and RMG-II cells): neither of the βAR negative cell lines showed an increase in intracellular cAMP levels

NC[C@H](O)c1ccc(O)c(O)c1 [norepinephrine]
increase in VEGF mRNA expression (VEGF mRNA; SKOV3ip1, peak 1.5 hours following treatment): 8.4 fold | VEGF expression (VEGF mRNA; βAR-negative A2780 cells): no increase in VEGF expression | intracellular cAMP levels after stimulation (A2780 and RMG-II cells): neither of the βAR negative cell lines showed an increase in intracellular cAMP levels

Source: US8895717B2, “Delivery of siRNA by neutral lipid compositions” (The Board of Regents of the University of Texas System, priority 2005, dated 2014)
